Laboratory results: PMC3776838, “Detection of Phospho-Sites Generated by Protein Kinase CK2 in CFTR: Mechanistic Aspects of Thr1471 Phosphorylation” (PLoS ONE, 2013)
“Also recorded” adds a separate entry of the source.

Experiments:
PLK3 = assay: Phosphorylation of the 42-mer CFTR peptide by PLK3; assay type: biochemical; conditions: same conditions as with CK2 holoenzyme, Figure 2B
Description: (§1) CK1 isoforms and PLK 2 and 3 were obtained as described in [21], and [22], respectively.
(§2) Recombinant mouse full length CFTR (mCFTR) was cloned, expressed and purified as described in [20]. A 42-mer peptide reproducing the C-terminal tail of human CFTR (residues 1439–1480) was expressed in Escherichia coli with an N-terminal His tag and purified using affinity chromatography (Talon) followed by cleavage of the His tag by thrombin. Further details are given in the Material S1.
(§3) Peptides derived from human CFTR C-terminal region were phosphorylated by incubation in a 20-µl volume containing 50 mM Tris/HCl, pH 7.5, 10 mM MgCl2, 100 mM NaCl, and 50 µM [γ-^33P]ATP (specific radioactivity 1,500–2,000 cpm/pmol). The reaction was started by the addition of the indicated protein kinases. […] Samples were separated on Tricine-SDS-PAGE following the Schägger’s protocol in a running buffer composed of 100 mM Tris/HCl, pH 8.3, 100 mM Tricine, 0.1% (w/v) SDS. ^33P incorporation was evaluated by gels autoradiography on PerkinElmer’s Cyclone Plus Storage Phosphor System. Initial rate data were analyzed with the program Prism (GraphPad Software, La Jolla, CA).

CK1 = assay: Phosphorylation of the 42 amino acid CFTR peptide by CK1; assay type: biochemical; conditions: not shown; listed as 42 amino acid peptide
Description: as §1, §2, §3

GCK/FAM20C = assay: Phosphorylation of the 42 amino acid CFTR peptide by Golgi apparatus casein kinase; assay type: biochemical; conditions: not shown; listed as 42 amino acid peptide
Method: as §2
(§4) Peptides derived from human CFTR C-terminal region were phosphorylated by incubation in a 20-µl volume containing 50 mM Tris/HCl, pH 7.5, 10 mM MgCl2, 100 mM NaCl, and 50 µM [γ-^33P]ATP (specific radioactivity 1,500–2,000 cpm/pmol). The reaction was started by the addition of the indicated protein kinases. The reaction mixtures were incubated for 10 minutes at 37°C and stopped by the addition of 2× concentrated Tricine sample buffer (450 mM Tris HCl, pH 8.45, 12% (v/v) glycerol, 4% (w/v) SDS, 0.0025% (w/v) Coomassie Blue G, 0.0025% (w/v) Phenol Red and 105 mM DTT). Samples were separated on Tricine-SDS-PAGE following the Schägger’s protocol in a running buffer composed of 100 mM Tris/HCl, pH 8.3, 100 mM Tricine, 0.1% (w/v) SDS. ^33P incorporation was evaluated by gels autoradiography on PerkinElmer’s Cyclone Plus Storage Phosphor System. Initial rate data were analyzed with the program Prism (GraphPad Software, La Jolla, CA).

[1] = molecular target: T1, CK2 holoenzyme (CK2 α2β2) (Homo sapiens, UniProt P67870+P68400); assay: Phosphorylation of CFTR C-terminal peptides by CK2 holoenzyme (33P incorporation); assay type: biochemical; conditions: pH 7.5, 50 µM [γ-33P]ATP, 10 min, 37°C; for Kprime / Khalf / Vmax: Figure 3C, allosteric (sigmoidal) model, GraphPad Prism; for Kprime: Kprime = Khalf^h, not equal to Km unless h = 1; for phosphorylation by CK2 holoenzyme: Tricine-SDS-PAGE, autoradiography, Figures 2A and 3
T1 construct: made in house; host or cells: Escherichia coli
T1 sequence (P68400 whole entry): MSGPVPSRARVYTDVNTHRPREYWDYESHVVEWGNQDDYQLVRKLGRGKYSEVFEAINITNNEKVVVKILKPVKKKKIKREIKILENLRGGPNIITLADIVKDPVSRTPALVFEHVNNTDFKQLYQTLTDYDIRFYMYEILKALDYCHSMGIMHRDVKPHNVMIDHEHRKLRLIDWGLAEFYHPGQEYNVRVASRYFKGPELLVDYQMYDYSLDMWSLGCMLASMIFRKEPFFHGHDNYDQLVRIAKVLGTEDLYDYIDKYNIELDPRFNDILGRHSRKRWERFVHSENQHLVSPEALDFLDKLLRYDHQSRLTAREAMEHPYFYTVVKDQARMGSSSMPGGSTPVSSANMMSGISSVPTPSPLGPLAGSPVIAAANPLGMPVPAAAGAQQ
T1 sequence (P67870 whole entry): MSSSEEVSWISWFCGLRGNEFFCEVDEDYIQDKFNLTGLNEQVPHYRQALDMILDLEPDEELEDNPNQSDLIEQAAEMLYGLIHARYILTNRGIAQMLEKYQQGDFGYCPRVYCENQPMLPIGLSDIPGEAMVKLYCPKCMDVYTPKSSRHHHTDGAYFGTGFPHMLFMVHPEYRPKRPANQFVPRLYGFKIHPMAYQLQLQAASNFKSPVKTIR
Method: (§5) Human CK2, both the α-catalytic subunit and the α2β2-holoenzyme were expressed in Escherichia coli. CK2α2β2 holoenzyme was reconstituted by mixing pellets expressing CK2α and CK2β independently. Cells were lysed by French press at 4°C in Tris/HCl 25 mM, pH 8, NaCl 0.4 M, DTT 1 mM, proteases inhibitors cocktail (Roche). The soluble fraction obtained after 30 min centrifugation at 15000 g was applied on Heparin-Sepharose and the proteins were separated using a gradient elution (0.4–1 M NaCl). Fractions containing CK2 were further purified by size-exclusion chromatography using a buffer composed by Tris/HCl 25 mM, pH 8, NaCl 0.5 M, DTT 1 mM.
as §2
Synthetic peptide encompassing the last 20 residues of human CFTR C-terminal domain ([…], residues 1461–1480) was obtained by solid phase peptide synthesis method using a multiple peptide synthesizer (SyroII, MultiSynTech GmbH) on p-Benzyloxybenzyl alcohol resin (100–200 mesh) HMP resin (Novabiochem). The fluoren-9-ylmethoxycarbonyl (Fmoc) strategy was used throughout the peptide chain assembly, utilizing O-(7-Azabenzotriazol-1-yl)-N,N,N′,N′-tetramethyluronium hexafluorophosphate (HATU) as coupling reagent. The side-chain protected amino acid building blocks used were: N-α-Fmoc-Nω-(2,2,4,6,7-pentamethyldihydrobenzofuran-5-sulfonyl)-L-arginine, N-α-Fmoc-γ-tert-butyl-L-glutamic acid, N-α-Fmoc-β-tert-butyl-L-aspartic acid, N-α-Fmoc-O-tert-butyl-L-threonine, N-α-Fmoc-Nε-(tert-butyloxycarbonyl)-L-lysine, N-α-Fmoc-N-γ-trityl-L-glutamine. Cleavage of the peptide was performed by reacting the peptidyl-resin with a mixture containing TFA/ethanedithiol/phenol 5% for 2.5 h. Crude peptide were purified by a preparative reverse phase HPLC. Molecular mass of the peptide were confirmed by mass spectroscopy on a MALDI TOF-TOF mass spectrometer (model 4800– AB Sciex). The purity (>90%) was evaluated by analytical reverse phase HPLC.
as §4

PLK2 = assay: Phosphorylation of the 42-mer CFTR peptide by PLK2; assay type: biochemical; conditions: same conditions as with CK2 holoenzyme, Figure 2B
Description: as §1, §2, §3

CK2 α-catalytic subunit = assay: Phosphorylation of the 42-mer CFTR peptide by isolated CK2 α-catalytic subunit; assay type: biochemical, human; conditions: 0.4 µg peptide, pH 7.5, 50 µM [γ-33P]ATP, 10 min, 37°C, autoradiography, Figure 2A
Method: as §5
Recombinant mouse full length CFTR (mCFTR) was cloned, expressed and purified as described in [20]. […]
as §3, with “cpm/pmol).” for “cpm/pmol). The reaction was started by the addition of the indicated protein kinases.”

[2] = tested on: WT, WT/T1471A or Phe508delCFTR; assay: CFTR bands B and C in BHK cells exposed to CHX or Brefeldin A; assay type: cell-based, human
Method: Baby hamster kidney cells (BHK) stably expressing human CFTR (hCFTR) either wild type (WT), or Phe508del, or WT T1471A were growth to reach 70–80% confluency. After 2 h-long treatment with 100 µg/mL cyclohexamide, cells were washed with PBS and incubated with 2 µM CX4945 or its vehicle for the indicated time. At each time-point cells were washed with ice-cold PBS, scraped from the plates, pelleted by centrifugation (1200 g for 5 min at room tempertaure) and lysed in a buffer containing 1% (v/v) Nonidet P40, 50 mM Tris/HCl (pH 7.5) and 150 mM NaCl with fresh protease inhibitor tablets (Roche), 1 µM Okadaic acid (Alexis) and phosphatases inhibitors cocktails 2 and 3 (Sigma). Cells were lysed by incubation on ice for 30 min and then the lysates were cleared by centrifugation at 17000 g for 30 min at 4°C. The supernatant was collected and subjected to protein concentration quantification.
Western blot analysis was performed as described in [14] using a modified Laemmli buffer containing 105 mM dithiothreitol (final concentration) to enhance the solubilization of CFTR. 20–30 µg of total proteins were separated on 4–12% precast NuPage® Bis-Tris gradient gels (Invitrogen) according to the manufacturer’s instructions and transferred on to Optitran BA-S 83 nitrocellulose membranes (Whatman) with a semi-dry blotter (Biometra) for 1 h at 150 mA. Membranes were saturated for 1 h with 5% skimmed milk in Tris-buffered saline (TBS) containing 0.2% Tween 20. Immunoblots were developed by enhanced chemiluminescence, detected on Kodak Image Station 440 cf and analyzed by the Kodak 1D image software. Tubulin was used as loading control.
Supplementary file pone.0074232.s004.tif: Figure S4 BHK cells expressing WT, WT/T1471A or Phe508delCFTR were exposed to either cycloheximide (CHX, 100 µg/ml) or Brefeldin A (BFA, 200 ng/ml). […] [a] Glozman R, Okiyoneda T, Mulvihill CM, Rini JM, Barriere H, Lukacs GL (2009) N-glycans are direct determinants of CFTR folding and stability in secretory and endocytic membrane traffic. J. Cell Biol. 184, 847–862. (TIF) Click here for additional data file.

[3] = listed as 42 amino acid peptide
[4] = listed as 42 amino acid-long recombinant fragment
[5] = CHX 100 µg/ml, 2 h, Figures 5 and S4

CFTR[1439-1480]: 42-mer peptide reproducing the C-terminal tail of human CFTR (residues 1439–1480), expressed in Escherichia coli with N-terminal His tag, cleaved by thrombin (QAISPSDRVKLFPHRNSSKCKSKPQIAALKEETEEEVQDTRL; left off: His tag, N-terminal, cleaved)
phosphorylation by PLK3 (PLK3): very low as compared to that obtained with CK2 holoenzyme | phosphorylation by PLK3 (PLK3; [3]): nor by other acidophilic Ser/Thr kinases (CK1, PLK2/3, GCK/FAM20C); also recorded: a weak phosphorylation was observed | phosphorylation by CK1 (CK1): nor by other acidophilic Ser/Thr kinases (CK1, PLK2/3, GCK/FAM20C); also recorded: unable to phosphorylate the 42 amino acid peptide | phosphorylation by GCK/FAM20C (GCK/FAM20C): nor by other acidophilic Ser/Thr kinases (CK1, PLK2/3, GCK/FAM20C); also recorded: unable to phosphorylate the 42 amino acid peptide | Kprime [1]: 3.13 µM | Khalf [1]: 1.49 µM | Vmax [1]: 90.5 DLUx10^-6 | phosphorylation by CK2 holoenzyme [1, 3]: readily phosphorylated at Thr1471 | phosphorylation by CK2 holoenzyme [1, 4]: readily phosphorylated by CK2 holoenzyme | phosphorylation by CK2 holoenzyme ([1]; listed as recombinant fragment of human CFTR): readily phosphorylated, with favorable kinetics, at Thr1471 by CK2 holoenzyme | phosphorylation by PLK2 (PLK2): very low as compared to that obtained with CK2 holoenzyme | phosphorylation by PLK2 (PLK2; [3]): nor by other acidophilic Ser/Thr kinases (CK1, PLK2/3, GCK/FAM20C); also recorded: a weak phosphorylation was observed | phosphorylation by isolated CK2 catalytic α-subunit (CK2 α-catalytic subunit; [3]): neither by its isolated catalytic subunit | phosphorylation by isolated CK2 catalytic α-subunit (CK2 α-catalytic subunit; [4]): not by the isolated catalytic α-subunit alone

C[C@H]1CCC/C=C/[C@@H]2C[C@H](O)C[C@H]2[C@H](O)/C=C/C(=O)O1 [Brefeldin A]
effect on CFTR band B (immature core-glycosylated, ER-resident) ([2]; Brefeldin A 200 ng/ml, Figure S4): opposite effects on the fate of band B; also recorded: band B increases

KPQIAALKEETEEEVQDTRL [CFTR[1461-1480], Synthetic peptide encompassing the last 20 residues of human CFTR C-terminal domain]
Kprime [1]: 1430 µM | Khalf [1]: 1290 µM | Vmax [1]: 1477 DLUx10^-6 | phosphorylation by CK2 holoenzyme ([1]; listed as shorter synthetic peptide encompassing Thr1471): also phosphorylated by CK2 albeit with lower efficiency | phosphorylation by CK2 holoenzyme ([1]; listed as synthetic peptide encompassing the last 20 residues of hCFTR): can also be phosphorylated by CK2 holoenzyme, although much less efficiently

C[C@@H]1C[C@@H]([C@H](O)CC2CC(=O)NC(=O)C2)C(=O)[C@@H](C)C1 [CHX, cycloheximide]
effect on CFTR band B (immature core-glycosylated, ER-resident) [2, 5]: fast and almost complete disappearance of band B; also recorded: attenuation/disappearance of the ER-resident band B of CFTR | effect on CFTR band C (mature fully glycosylated) [2, 5]: much slower; also recorded: the fully mature band C is not affected by CHX treatment
